Measurements from PMC10643673, “An immunomodulating peptide with potential to suppress tumour growth and autoimmunity” (Scientific Reports, 2023).
Where a SMILES comes first, the peptide text is derived from it. [ ]: non-standard residue; d: D form. Gly(decyl) = CCCCCCCCCC[C@H](N)C(=O)O

Tests used:
[1] = test system: Lewis lung cancer (LLC) cells; assay: Cancer cell proliferation assay (SRB); format: cell-based, mouse; conditions: 72 h, doxorubicin 2.5 µM, positive control
Method: Lewis lung cancer (LLC) cells (sourced from the American Type Culture Collection) were seeded into 96-well plates (1000 cells/well) in complete cell culture medium and allowed to attach for 24 h (37 °C, 5% CO2 in air). Next, an equal volume of either cell culture medium only, or 2 × concentration of drug dissolved in cell culture medium, was added to each of 5 replicate wells (technical replicates) to expose cells to concentrations of IK14004 in the dose range from 0 to 5 µM. Cells were cultured for 72 h in the presence of either IK14004 or Doxorubicin (2.5 µM; positive control) and then the cell culture medium was removed and the attached cells fixed in ice-cold trichloroacetic acid. Fixed cells were stained with Sulforhodamine B (SRB) and then washed with 1% acetic acid to remove unbound dye. The retained dye was solubilised in 10 mM Tris base solution and the absorbance at 550 nm was measured with the baseline (media only without cells) subtracted. The data were normalised between the maximum proliferation (100%, cells with no drug) and the starting cell density (0%, cells before addition of drug). Each experiment was performed on two independent occasions (biological replicates).

[2] = test system: exhausted CD4+ T cells derived from MBP-tracker mouse splenocytes; assay: Murine splenocyte-derived exhausted CD4+ T cell assay; format: cell-based; conditions: highest concentration 1.25 µM
Method: Concept Life Sciences have established a proprietary method for assessing murine CD4+ T cell exhaustion in vitro using Tg4-Ly5.1 MBP-Tracker Mice obtained from the University of Edinburgh. Spleens were removed from transgenic B10PLxC57BL/6 mice and processed to generate a single cell suspension of splenocytes. Myelin basic protein (MBP)-Tracker splenocytes were resuspended at 3 × 10^6/mL and stimulated 72 h at approximately 37 °C, 5% CO2, with altered peptide ligand (APL)-MBP (to generate exhausted cells). Following stimulation, T cells were purified by Ficoll density gradient, and subsequently re-plated at 2 × 10^6/mL in 20 U/mL IL-2 for four days. At the end of this rest period, cells were resuspended (4 × 10^5/mL, final 2 × 10^4 per well) and restimulated using irradiated APCs (from B10PLxC57BL/6 mice, 4 × 10^6/mL, final concentration of 2 × 10^5 cells per well) plus a single dose of APL-MBP peptide together with IK14004 peptide for 72 h.
Supernatants were sampled from culture wells for assessment of IL-2 and IFN-γ by ELISA (eBioScience, Lot # 4280695 and Lot #. 4308729, respectively) and flow cytometry used for assessment of CD25 and Ki67 (eBioScience, Lot # 4276862 and Lot # 4296884, respectively). Anti-PD-1 and IgG2a antibodies were obtained from BioXCell.

[3] = test system: splenocyte-derived CD4+ T cells and NK cells; conditions: mouse, in vivo
Method: LLC cells sourced from ATCC. The Lewis lung cancer cell line was cultured to approximately 70% confluency before cells were collected and resuspended at 5 × 10^6 /mL in sterile HBSS. […] were injected subcutaneously with 5 × 10^5 cells (100 µL) into the right flank. Mice were randomly assigned to treatment groups 5 days after tumour cell implantation such that the average tumour size was approximately equal between the two groups. Test substance IK14004 or vehicle were administered twice weekly (Monday and Thursday) via intraperitoneal (i.p.) injections, from day 5 post tumour cell implantation, until the tumours reached an average of 10 mm in diameter in the vehicle treated group. Tumours were measured three times each week using digital callipers and once the mean tumour size for the vehicle group reached 10 mm in diameter, mice were sacrificed by cervical dislocation and tumour and spleens collected. Spleens were processed into single cell suspensions and the red blood cells lysed. Fresh splenocyte suspensions were assessed by trypan blue exclusion. From fresh splenocyte suspensions, 1 × 10^6 viable cells were stained using a viability dye (Flexible Viability Dye eFluorTM 780; ThermoFisher), CD4 (BV605), NK1.1 (BV510), CD25 (AF488), IL-12Rβ1 (PE) and IL-12Rβ2 (APC) for flow cytometry.

[4] = test system: splenocytes / CD4+ T cells; assay: Splenocytes from LLC lung metastasis model, fresh or cultured overnight with/without TCR stimulation; format: in vivo, mouse; conditions: peptide- vs vehicle-treated mice; after 24 h
Method: Spleens were collected and processed into a single cell suspension. Fresh splenocytes were assessed by means of flow cytometry with CD28 (BV421) and 2 × 10^5 cells per well were then cultured overnight with or without TCR stimulation (anti-CD3 alone or in combination with anti-CD28 both at 2 µg/mL, plate bound overnight in PBS at 4 °C). After overnight culture cell free supernatants were collected and assessed for IFN-γ and IL-2 by ELISA (eBioscience Kits) and set up in technical triplicate. Cells before and after stimulation were stained for flow cytometry (viability, CD4, CD28 (BV711), IL-12Rβ1 and IL-12Rβ2.

human NK cells = assay: Isolated CD3−/CD56+dim NK cell cultures, flow cytometry; format: cell-based; conditions: 24 h; all concentrations
Method: CD3−/CD56+^dim NK cell populations were isolated from PBMCs using immuno-magnetic separation (Stem cell, Lot no. 18A86421). CD56^+ NK cells were resuspended in RPMI-10 (RPMI-1640 supplemented with 10% heat inactivated FBS, 100 U/mL penicillin, 100 µg/mL streptomycin, 2 mM L-glutamine, and 50 µM β-mercaptoethanol) at 0.25 × 10^6/mL and plated at a density of 2.5 × 10^4 per well (100 µL) in 96-well, flat bottom culture plates. Purified NK cells were cultured together with either IK14004 or recombinant IL-2 (InVitrogen, Lot #223086-011) for […] at 37 °C, 5% CO2.
(§1) Staining was performed to determine cell viability (Flexible Viability Dye eFluorTM 780; ThermoFisher) and expression of extracellular/intracellular markers assessed using fluorescently-labelled antibodies against human proteins within different cell populations. […] After 24 h cells were collected and CD4+ and CD8+ T cells assessed for TCRα/β expression (PE; BioLegend). Phospho-STAT4 in was assessed in TCR-activated CD3 + T cell and PBMC cultures. […] Cells were then stained with fluorochrome conjugated anti-pSTAT4 antibody (eBioscience, Lot# 12-9044) and intracellular expression determined within CD8+ T cells by flow cytometry. Similarly, anti-CD3-stimulated PBMC cultures were exposed only to recombinant IL-12p70 (Peprotech, Lot #0617596) and pSTAT4 assessed within CD4+ /CD8+ T cell fractions. […]

[5] = test system: K562 erythroleukemic cells; assay: K562/PBMC co-culture cytotoxicity assay (Calcein AM release); conditions: PBMCs exposed to peptide 48 h, then 4 h co-culture at 5:1 ratio; 0.08 to 1.25 µM
Method: Human PBMCs (2.5 × 10^5 cells per well) were cultured in 96-well round-bottom tissue culture plates for 48 h at 37 °C, 5% CO2 in the presence of IK14004 and IKD14004 peptides. After peptide exposure, PBMCs were co-cultured with Calcein AM stained K562 cells (5 × 10^4/well) at a 5:1 ratio for 4 h at 37 °C, 5% CO2. For spontaneous release control Calcein AM-K562 cells alone were treated with PBS (20 µL). For maximal release control Calcein AM-K562 cells alone were treated with lysis buffer (20 µL). After 4 h culture, 150 µL supernatant were transferred to black wall plates and intensity of Calcein green fluorescence release detected using GloMax® Discover to determine percentage of specific cytotoxicity.

[6] = test system: human PBMCs (CD4+/CD8+ T cells, NK cells); assay: Anti-CD3-stimulated human PBMC cultures, flow cytometry/ELISA; format: cell-based; conditions: rIL-12p70 10 ng/mL; 72 h
Method: Preparations of peripheral blood mononuclear cells (PBMCs) and isolated T cells from buffy coat samples were performed using SepMate tubes, EasySep selection and enrichment kits, Lymphoprep, RoboSep Buffer, and EasySep magnets (STEMCELL Company). PBMCs were resuspended in RPMI-10 (RPMI-1640; ThermoFisher) supplemented with 10% heat inactivated Foetal Bovine Serum (LabTech), 100 U/mL penicillin, 100 µg/mL streptomycin (ThermoFisher), 2 mM L-glutamine (ThermoFisher), and 50 µM β-mercaptoethanol (ThermoFisher) at 1 × 10^6 cells/mL and plated at a density of 1 × 10^5 per well (100 µL) in 96-well, flat-bottom culture plates. […]
as §1, with “[…] Flow cytometry data” for “Similarly, anti-CD3-stimulated PBMC cultures”, “exported as FCS files from Attune™ NxT software” for “exposed only to recombinant IL-12p70 (Peprotech, Lot #0617596)”, “analysed using FlowJo™ software.” for “pSTAT4 assessed within CD4+ /CD8+ T cell fractions.”

COc1cccc2c1C(=O)c1c(O)c3c(c(O)c1C2=O)C[C@@](O)(C(=O)CO)C[C@@H]3O[C@H]1C[C@H](N)[C@H](O)[C@H](C)O1 [doxorubicin]
proliferation of the LLC cell line [1]: total cell kill

CCCCCCCCCC[C@H](NC(=O)[C@H](CCCCCCCCCC)NC(=O)[C@H](CCCCCCCCCC)NC(=O)[C@H](CCCCCCCCCC)NC(=O)[C@H](CCCNC(=N)N)NC(=O)[C@H](Cc1ccc(O)cc1)NC(=O)[C@H](CC(C)C)NC(=O)[C@@H]1CCCN1C(=O)[C@H](CC(N)=O)NC(=O)[C@H](CCCCN)NC(=O)[C@H](C)NC(=O)[C@H](CCCCN)NC(=O)[C@H](CO)NC(=O)[C@@H](N)CCCNC(=N)N)C(N)=O [IK14004, RSKAKNPLYR-(2)Adod-(2)Adod-(2)Adod-(2)Adod-amide] (H-RSKAKNPLYR[Gly(decyl)][Gly(decyl)][Gly(decyl)][Gly(decyl)]-NH2)
visual signs of cell death at end of splenocyte culture [2]: no visual signs of cell death | viability of freshly harvested splenocytes [3]: ~100% | viability of cultured splenocytes [4]: no differences | percentage of viable NK cells (human NK cells): remained unchanged | significant K562 cytotoxicity [5]: at most concentrations

B1: rIL-12p70: recombinant IL-12p70 (Peprotech), 10 ng/mL (protein, UniProt P29459 23-219; P29460 23-328, looked up)
Interleukin-12 subunit alpha: RNLPVATPDPGMFPCLHHSQNLLRAVSNMLQKARQTLEFYPCTSEEIDHEDITKDKTSTVEACLPLELTKNESCLNSRETSFITNGSCLASRKTSFMMALCLSSIYEDLKMYQVEFKTMNAKLLMDPKRQIFLDQNMLAVIDELMQALNFNSETVPQKSSLEEPDFYKTKIKLCILLHAFRIRAVTIDRVMSYLNAS
Interleukin-12 subunit beta: IWELKKDVYVVELDWYPDAPGEMVVLTCDTPEEDGITWTLDQSSEVLGSGKTLTIQVKEFGDAGQYTCHKGGEVLSHSLLLLHKKEDGIWSTDILKDQKEPKNKTFLRCEAKNYSGRFTCWWLTTISTDLTFSVKSSRGSSDPQGVTCGAATLSAERVRGDNKEYEYSVECQEDSACPAAEESLPIEVMVDAVHKLKYENYTSSFFIRDIIKPDPPKNLQLKPLKNSRQVEVSWEYPDTWSTPHSYFSLTFCVQVQGKSKREKKDRVFTDKTSATVICRKNASISVRAQDRYYSSSWSEWASVPCS
percentage of pSTAT4-expressing CD8+ T cells [6]: as did the percentage of pSTAT4-expressing CD8+ T cells | proportion of pSTAT4-expressing CD4+ T cells [6]: increased
